# Measured values as given in patent publication US20230242663A1, “COMBINATION THERAPY COMPRISING ANTI-CD137 ANTIBODIES” (Adagene PTE. LTD., priority 2020, published 2023).
# What was measured:
# [1] = system: HUT102 human TCL cells; experiment: mRNA expression, QuantiGene Plex assay, HUT102; format: cell-based; details: for regulation of CD137L mRNA expression, HUT102 mRNA: summary Table 3; for CD137L mRNA expression / CD137 mRNA expression / CD274 mRNA expression: HUT102 cells, dose range, 24 hours; as to regulation of CD137L mRNA expression, HUT102 mRNA: key: 'Y' indicates the treatment caused upregulation; 'N' indicates the treatment did not cause upregulation
# Method: (§1) HUT102, HUT78, and SU-DHL1 cells, cultured in 96-well plates, were treated with a dose range of Romidepsin (0-0.1 μM), Bortezomib (0-1.0 μM), Belinostat (0-10.0 μM), or Vincristine (0-0.03 μM) for 24 hours. Cells were lysed with Lysis Buffer and cell lysates were used for the QuantiGene Plex assay (7-gene multiplex (CD80, CD86, CD274, CD137, CD137L, HPRT1, GAPDH))
# [2] = system: HUT78 human TCL cells; experiment: Dose-dependent effects on CD137L protein surface expression (flow cytometry); format: cell-based; details: for regulation of CD137L protein surface expression, HUT78 Protein: summary Table 3; for CD137L protein surface expression: HUT78 cells, dose range, 24 hours; as to regulation of CD137L protein surface expression, HUT78 Protein: key: 'Y' indicates the treatment caused upregulation; 'N' indicates the treatment did not cause upregulation
# Method: HUT78 cells, cultured in 6-well plates in RPMI-1640 medium containing 20% fetal bovine serum (FBS), were treated with a dose range of Romidepsin (0-0.1 μM), Bortezomib (0-1.0 μM), Belinostat (0-1.0 μM), Chidamide (0-3.0 μM), or Vincristine (0-0.03 μM) for 24 hours. Cells (1×10^5) were washed twice in Dulbecco's Phosphate Buffered Saline (DPBS), stained with either Phycoerythrin (PE)-conjugated Isotype Control (Biolegend catalog #400112) and anti-human-CD137L (Biolegend catalog #311504) antibodies (1 μL antibody in 100 μL DPBS, FIG. 5A-5E) or PE-Cy7-conjugated Isotype Control (Thermofisher catalog #25-4714-80) and anti-human-CD137L (Thermofisher catalog #25-5906-42) antibodies (1 μL antibody in 100 μL DPBS, FIG. 5F-5H) at 4° C. for 30 minutes, washed twice in DPBS, and resuspended in 100 μL DPBS for flow cytometry analysis.
# [3] = system: HUT78 human TCL cells; experiment: mRNA expression, QuantiGene Plex assay, HUT78; format: cell-based; details: for regulation of CD137L mRNA expression, HUT78 mRNA: summary Table 3; for CD137L mRNA expression: HUT78 cells, dose range, 24 hours; as to regulation of CD137L mRNA expression, HUT78 mRNA: key: 'Y' indicates the treatment caused upregulation; 'N' indicates the treatment did not cause upregulation
# Method: as §1
# [4] = system: SU-DHL1 human TCL cells; experiment: mRNA expression, QuantiGene Plex assay, SU-DHL1; format: cell-based; details: for regulation of CD137L mRNA expression, SU-DHL1 mRNA: summary Table 3; as to regulation of CD137L mRNA expression, SU-DHL1 mRNA: key: 'Y' indicates the treatment caused upregulation; 'N' indicates the treatment did not cause upregulation
# Method: as §1
# [5] = system: A20 B cell lymphoma cells; format: in vivo, BALB/c mice; details: ADG106 5 mg/kg twice a week for 4 doses; Bendamustine 12.5 mg/kg once a day for 4 doses; intraperitoneal
# Method: BALB/c mice (n=8 per group, female, 6-8 weeks old) were transplanted subcutaneously with 5×10^5 A20 B cell lymphoma cells. After tumors were established (i.e., having reached a volume of 100 mm^3), mice were treated with vehicle, ADG106 (5 mg/kg, twice a week for 4 doses by intraperitoneal injection), Bendamustine (12.5 mg/kg, once a day for 4 doses by intraperitoneal injection), or ADG106 (5 mg/kg, twice a week for 4 doses by intraperitoneal injection) in combination with Bendamustine (12.5 mg/kg, once a day for 4 doses by intraperitoneal injection). Tumor growth was monitored twice weekly and reported as mean tumor volume±SEM over time.
# [6] = system: HUT78 human TCL cells; experiment: Time-dependent effects on CD137L protein surface expression (flow cytometry); format: cell-based; details: 0.003 μM Romidepsin or 0.01 μM Bortezomib, 2, 6, 16 or 24 hours
# Method: HUT78 cells, cultured in 6-well plates in RPMI-1640 medium containing 20% FBS, were treated with 0.003 μM Romidepsin or 0.01 μM Bortezonib for 2, 6, 16, or 24 hours. Cells (1×103) were washed twice in DPBS, stained with PE-conjugated Isotype Control (Biolegend catalog #400112) and anti-human-CD137L (Biolegend catalog #311504) antibodies (1 μL antibody in 100 μL DPBS) at 4° C. for 30 minutes, washed twice in DPBS, and resuspended in 100 μL DPBS for flow cytometry analysis.
# [7] = system: purified human T cells; experiment: Cell viability of purified human T cells (CellTiter-Glo); format: cell-based; details: dose range, 24 hours
# Method: T cells were purified from human PBMCs (>95% purity, data not shown), cultured in 96-well plates in RPMI-1640 medium containing 10% fetal bovine serum (FBS), and treated with a dose range of Romidepsin (0-0.1 μM), Bortezomib (0-1.0 μM), or Chidamide (0-3.0 μM) for 24 hours. The CellTiter-Glo assay (Promega) was used to assess cell viability according to the manufacturer's instructions.
# [8] = system: HUT78 human TCL cells; experiment: Cell viability of HUT78 cells (CellTiter-Glo); format: cell-based; details: dose range, 24 hours
# Method: HUT78 cells, cultured in 96-well plates in RPMI-1640 medium containing 20% fetal bovine serum (FBS), were treated with a dose range of Romidepsin (0-0.1 μM), Bortezomib (0-1.0 μM), or Chidamide (0-3.0 μM) for 24 hours. The CellTiter-Glo assay (Promega) was used to assess cell viability according to the manufacturer's instructions.
# [9] = system: human T lymphocytes; details: Kim K. et al., Immunology 2002; cited from earlier work
# [10] = SU-DHL1 cells, dose range, 24 hours
Molecule,"regulation of CD137L mRNA expression, HUT102 mRNA [1]",CD137L mRNA expression [1],"regulation of CD137L protein surface expression, HUT78 Protein [2]",CD137L protein surface expression [2],"regulation of CD137L mRNA expression, HUT78 mRNA [3]",CD137L mRNA expression [3],"regulation of CD137L mRNA expression, SU-DHL1 mRNA [4]","CD137L mRNA expression [4, 10]",expression of CD137 in human T lymphocytes [9],other results
"O=C(/C=C/c1cccc(S(=O)(=O)Nc2ccccc2)c1)NO [Belinostat, belinostat]",Y,dose-dependent upregulation,Y,dose-dependent upregulation,Y,dose-dependent upregulation,Y,dose-dependent upregulation,,"CD137 mRNA expression [1]: induced; CD274 mRNA expression [1]: induced; CD137 mRNA expression [4, 10]: induced"
"Cn1c(CCCC(=O)O)nc2cc(N(CCCl)CCCl)ccc21 [Bendamustine, bendamustine]",,,,,,,,,,tolerability in mice as monotherapies [5]: well tolerated
"CC(C)C[C@H](NC(=O)[C@H](Cc1ccccc1)NC(=O)c1cnccn1)B(O)O [Bortezomib, bortezomib]",Y,dose-dependent upregulation,Y,dose-dependent upregulation,N,not,Y,dose-dependent upregulation,,CD274 mRNA expression [1]: induced; CD137L protein surface expression over time [6]: time-dependent upregulation; viability of purified human T cells [7]: minimal or no effect; cell viability of HUT78 human TCL cells [8]: inhibited cell viability
"Nc1cc(F)ccc1NC(=O)c1ccc(CNC(=O)/C=C/c2cccnc2)cc1 [Chidamide, chidamide]",,,Y,,,,,,,
"CO[C@@]12[C@H](COC(N)=O)C3=C(C(=O)C(C)=C(N)C3=O)N1C[C@@H]1N[C@@H]12 [Mitomycin, mitomycin]",,,,,,,,,induce expression of CD137,
"C/C=C1\NC(=O)[C@H]2CSSCC/C=C/[C@H](CC(=O)N[C@H](C(C)C)C(=O)N2)OC(=O)[C@H](C(C)C)NC1=O [Romidepsin, romidepsin]",Y,,Y,,Y,,Y,,,
"CC[C@]1(O)C[C@H]2CN(CCc3c([nH]c4ccccc34)[C@@](C(=O)OC)(c3cc4c(cc3OC)N(C=O)[C@H]3[C@@](O)(C(=O)OC)[C@H](OC(C)=O)[C@]5(CC)C=CCN6CC[C@]43[C@@H]65)C2)C1 [Vincristine, vincristine]",Y,induced upregulation,N,did not show upregulation,N,not,N,not,,CD137 mRNA expression [1]: induced
COc1cccc2c1C(=O)c1c(O)c3c(c(O)c1C2=O)C[C@@](O)(C(=O)CO)C[C@@H]3O[C@H]1C[C@H](N)[C@H](O)[C@H](C)O1 [doxorubicin],,,,,,,,,induce expression of CD137,
"ADG106: anti-CD137 antibody; heavy chain SEQ ID NO: 10, light chain SEQ ID NO: 11; used as mouse IgG1 in Example 10",,,,,,,,,,tolerability in mice as monotherapies [5]: well tolerated
bleomycin,,,,,,,,,induce expression of CD137,
